Laboratory results as given in patent US20260159486A1, “BENZO[H]QUINAZOLINE-4-AMINE DERIVATIVES FOR THE TREATMENT OF CANCER” (Redona Therapeutics, Inc., priority 2021, published 2026).

Experiments:
[1] = test system: MDA-MB-231 cells; test: MDA-MB-231 proliferation assay; type: cell-based; conditions: YO-PRO-1 Iodide readout
Description: (§1) MDA-MB-231 and CAL-51 Proliferation Assay
(§2) Cells (MDA-MB-231 (American Type Culture Collection (ATCC), #HTB-26) or CAL-51 (Deutsche Sammlung von Mikroorganismen und Zellkulturen (DSMZ), #ACC302) as applicable) were cultivated in DMEM High Glucose (4.5 g/L) with L-Glutamine (BioConcept, cat. no. 1-26F03-I) supplemented with 1% Na-pyruvate (Sigma, cat. no. S8636), 1% Penicillin-Streptomycin (BioConcept, cat. no. 4-01F00H), and 10% FBS (Sigma, cat. no. F9665) using standard techniques. Cells were seeded in black, clear-bottom 384 well plates for tissue culture (Greiner Bio-One, cat. no. 781091) at a density of 750 cells per well in 20 μL medium and the plates were incubated overnight at 37° C. with 5% CO2 prior to treatment. Experimental compounds were serially diluted in DMSO to 200× the desired final concentrations. The solutions were then diluted 1:40 with culture medium and 5 μL aliquots were mixed into the wells containing the cells. The final concentration of DMSO was 0.5%. The plates were incubated for 72 hours and cell numbers were then measured using YO-PRO™-1 Iodide (ThermoFisher Scientific, cat. no. Y3603) essentially as recommended by the manufacturer. Briefly, a 12.5 μM solution of YO-PRO™_1 Iodide in 5× YO—PRO buffer (100 mM Na-citrate, 130 mM NaCl, pH 4) was combined with an equal volume of lysis buffer (0.6% NP-40, 30 mM EDTA, 30 mM EGTA, 0.33× YO—PRO buffer) and 12.5 μL of the mixture were dispensed into each well. The plates were incubated at room temperature in the dark for 30 minutes. Fluorescence intensity signals were then measured on a Synergy 4 reader (BioTek) using 485/20 nm and 530/25 nm filters for the excitation and emission, respectively. Relative proliferation values were calculated by normalizing the raw data using DMSO-treated cells (100% proliferation) and the signals obtained from cells that were evaluated at the time of compound addition (0% proliferation). The concentration-response data were fitted to a sigmoidal 4-parameter logistic model with the maximum constrained to 100%. GI50 values were calculated from the curves as the compound concentrations reducing proliferation to 50%.

[2] = test system: CAL-51 cells; test: CAL-51 proliferation assay; type: cell-based; conditions: YO-PRO-1 Iodide readout
Description: as §1, §2

[3] = target: T1, recombinant human CLK3 (Homo sapiens, UniProt P49761); test: CLK3 kinase assay (LANCE Ultra); type: biochemical; conditions: CLK3 0.5 nM, ATP 300 μM, 3 hours at 30° C.
T1 construct: purchased Thermo Fisher Scientific PV3826
Method: CLK3 kinase activity was measured using the LANCE® Ultra technology (PerkinElmer) essentially as recommended by the supplier. Briefly, 2.5 μL of test sample at 4× the desired final concentration in 4% DMSO were dispensed into white, low volume, round bottom, 384 well plates (Corning, cat. no. 4512). 5 μL of a mixture containing recombinant human CLK3 (Thermo Fisher Scientific, cat. no. PV3826) and the labeled peptide substrate ULight™-CREBtide (PerkinElmer, cat. no. TRF0107) prepared in 1.33× kinase buffer (Thermo Fisher Scientific, cat. no. PV3189) were then added. Finally, the reactions were started by adding 2.5 μL of a 4× solution of ATP in kinase buffer. The plates were sealed with adhesive foils and incubated for 3 hours at 30° C. in the dark. The final concentrations of CLK3, ULight™-CREBtide, and ATP were 0.5 nM, 50 nM, and 300 μM, respectively. 5 μL of 40 mM EDTA were then added to terminate the reactions. The Eu-anti-phospho-CREB antibody (PerkinElmer, cat. no. TRF0200) diluted in LANCE® detection buffer (PerkinElmer, cat. no. CR97) was then added to a final concentration of 2 nM and the reactions were incubated for 1 hour at room temperature in the dark. The signals were measured using a Synergy 4 reader (BioTek) with a 320/80 nm filter for the excitation and 620/10 nm and 665/8 nm filters for the donor and acceptor emission, respectively. Relative inhibition values were calculated by normalizing the raw data using solvent control wells (0% inhibition) and wells that received no ATP (100% inhibition). IC50 values were calculated by fitting the concentration-response data to a sigmoidal 4-parameter logistic model. IC50 values for CLK3 are determined from duplicate measurements at ten different concentrations (serial 1:3 dilutions).

T1 sequence (P49761 whole entry): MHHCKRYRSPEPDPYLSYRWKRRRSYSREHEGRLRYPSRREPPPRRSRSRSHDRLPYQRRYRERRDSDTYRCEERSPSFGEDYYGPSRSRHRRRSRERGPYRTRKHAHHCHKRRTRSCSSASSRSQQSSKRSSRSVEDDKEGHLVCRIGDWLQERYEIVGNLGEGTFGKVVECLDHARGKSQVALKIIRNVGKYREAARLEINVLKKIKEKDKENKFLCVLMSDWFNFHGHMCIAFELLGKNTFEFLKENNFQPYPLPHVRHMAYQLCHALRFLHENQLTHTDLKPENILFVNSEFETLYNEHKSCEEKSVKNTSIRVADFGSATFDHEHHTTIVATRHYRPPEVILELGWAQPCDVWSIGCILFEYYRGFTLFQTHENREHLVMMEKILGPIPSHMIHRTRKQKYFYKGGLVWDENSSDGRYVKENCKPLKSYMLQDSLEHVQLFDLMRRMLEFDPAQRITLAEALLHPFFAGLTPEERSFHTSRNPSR

| Structure (SMILES) | GI50 ([1]; Homo sapiens, MDA-MB-231, 72 h) | IC50 [3] | GI50 ([1]; 72 hours) | GI50 ([2]; Homo sapiens, CAL-51, 72 h) | GI50 ([2]; 72 hours) |
| --- | --- | --- | --- | --- | --- |
| COc1ccc2c(c1N1CC(O)C1)CC(C)(C)c1c(N)ncnc1-2 [Example 25, 1-(4-amino-8-methoxy-5,5-dimethyl-6H-benzo[h]quinazolin-7-yl)azetidin-3-ol] | 100 to 2000 nM | 101 to 1000 nM | – | 100 to 2000 nM | – |
| COc1ccc2c(c1NC[C@@H]1CNC(=O)O1)CC(C)(C)c1c(N)ncnc1-2 [Example 82, (5R)-5-[[(4-amino-8-methoxy-5,5-dimethyl-6H-benzo[h]quinazolin-7-yl)amino]methyl]oxazolidin-2-one] | 100 to 2000 nM | < 30 nM | – | < 100 nM | – |
| CC(CCC#N)c1c(O[C@H]2CC[C@H](N)CC2)ccc2c1CC(C)(C)c1c(N)ncnc1-2 (stereo partly drawn) [Example 97, 4-[4-amino-8-(trans-4-aminocyclohexoxy)-5,5-dimethyl-6H-benzo[h]quinazolin-7-yl]pentanenitrile] | < 100 nM | < 30 nM | – | < 100 nM | – |
| CN1CCN(c2ccc3c(c2N(C)CCC#N)CC(C)(C)c2c(N)ncnc2-3)CC1 [Example 118, 3-[[4-amino-5,5-dimethyl-8-(4-methylpiperazin-1-yl)-6H-benzo[h]quinazolin-7-yl]-methyl-amino]propanenitrile] | < 100 nM | < 30 nM | – | < 100 nM | – |
| CC1(C)Cc2c(ccc(O[C@H]3CC[C@H](N)CC3)c2N2CCCS2(=O)=O)-c2ncnc(N)c21 [Example 119, 8-(trans-4-aminocyclohexoxy)-7-(1,1-dioxo-1,2-thiazolidin-2-yl)-5,5-dimethyl-6H-benzo[h]quinazolin-4-amine] | 100 to 2000 nM | < 30 nM | – | 100 to 2000 nM | – |
| CC1(C)Cc2c(ccc(O[C@H]3CC[C@H](N)CC3)c2CCCC#N)-c2ncnc(N)c21 [Example 81, 4-[4-amino-8-(trans-4-aminocyclohexoxy)-5,5-dimethyl-6H-benzo[h]quinazolin-7-yl]butanenitrile] | 100 to 2000 nM | < 30 nM | – | < 100 nM | – |
| CN(C)CCOc1ccc2c(c1N(C)CCC#N)CC(C)(C)c1c(N)ncnc1-2 [Example 123, 3-[[4-amino-8-[2-(dimethylamino)ethoxy]-5,5-dimethyl-6H-benzo[h]quinazolin-7-yl]-methyl-amino]propanenitrile] | < 100 nM | < 30 nM | – | < 100 nM | – |
| CN(C[C@@H]1CNC(=O)O1)c1c(Br)ccc2c1CC(C)(C)c1c(N)ncnc1-2 [Example 126, (5S)-5-[[(4-amino-8-bromo-5,5-dimethyl-6H-benzo[h]quinazolin-7-yl)-methyl-amino]methyl]oxazolidin-2-one] | 100 to 2000 nM | 30 to 100 nM | – | 100 to 2000 nM | – |
| CC1(C)Cc2c(ccc(Br)c2N2CCC(C#N)C2)-c2ncnc(N)c21 (stereo not drawn) [Example 120, 1-(4-amino-8-bromo-5,5-dimethyl-6H-benzo[h]quinazolin-7-yl)pyrrolidine-3-carbonitrile] | 100 to 2000 nM | 101 to 1000 nM | – | 100 to 2000 nM | – |
| COc1ccn(-c2c(O[C@H]3CC[C@H](N)CC3)ccc3c2CC(C)(C)c2c(N)ncnc2-3)c1 [Example 57, 8-(trans-4-aminocyclohexoxy)-7-(3-methoxypyrrol-1-yl)-5,5-dimethyl-6H-benzo[h]quinazolin-4-amine] | 100 to 2000 nM | 30 to 100 nM | – | < 100 nM | – |

Further lines, with some results ahead:

| GI50 ([1]; Homo sapiens, MDA-MB-231, 72 h) | IC50 [3] | GI50 ([1]; 72 hours) | Structure (SMILES) | GI50 ([2]; Homo sapiens, CAL-51, 72 h) | GI50 ([2]; 72 hours) |
| --- | --- | --- | --- | --- | --- |
| 100 to 2000 nM | 101 to 1000 nM | – | CCOCCN(C)c1c(O[C@H]2CC[C@H](N)CC2)ccc2c1CC(C)(C)c1c(N)ncnc1-2 [Example 36, 8-(trans-4-aminocyclohexoxy)-N7-(2-ethoxyethyl)-N7,5,5-trimethyl-6H-benzo[h]quinazoline-4,7-diamine] | 100 to 2000 nM | – |
| 100 to 2000 nM | 101 to 1000 nM | – | CN(CC1CCOCC1)c1c(O[C@H]2CC[C@@H](N)CC2)ccc2c1CC(C)(C)c1c(N)ncnc1-2 [Example 29, 8-(cis-4-aminocyclohexoxy)-N7,5,5-trimethyl-N7-(tetrahydropyran-4-ylmethyl)-6H-benzo[h]quinazoline-4,7-diamine] | 100 to 2000 nM | – |
| 100 to 2000 nM | 30 to 100 nM | – | CC1(C)Cc2c(ccc(O[C@H]3CC[C@H](N)CC3)c2S(=O)(=O)NCC#N)-c2ncnc(N)c21 [Example 116, 4-amino-8-(trans-4-aminocyclohexoxy)-N-(cyanomethyl)-5,5-dimethyl-6H-benzo[h]quinazoline-7-sulfonamide] | 100 to 2000 nM | – |
| 100 to 2000 nM | 101 to 1000 nM | – | CN(Cc1ccncc1)c1c(O[C@H]2CC[C@H](N)CC2)ccc2c1CC(C)(C)c1c(N)ncnc1-2 [Example 101, 8-(trans-4-aminocyclohexoxy)-N7,5,5-trimethyl-N7-(4-pyridylmethyl)-6H-benzo[h]quinazoline-4,7-diamine] | 100 to 2000 nM | – |
| – | 30 to 100 nM | < 100 nM | COC1CCN(c2c(O[C@H]3CC[C@H](N)CC3)ccc3c2CC(C)(C)c2c(N)ncnc2-3)C1 (single isomer, unassigned) [Example 73, 8-(trans-4-aminocyclohexoxy)-7-(3-methoxypyrrolidin-1-yl)-5,5-dimethyl-6H-benzo[h]quinazolin-4-amine] | – | < 100 nM |
| > 2000 nM | 101 to 1000 nM | – | CN(C(=O)CO)c1c(O[C@H]2CC[C@H](N)CC2)ccc2c1CC(C)(C)c1c(N)ncnc1-2 [Example 41, N-[4-amino-8-(trans-4-aminocyclohexoxy)-5,5-dimethyl-6H-benzo[h]quinazolin-7-yl]-2-hydroxy-N-methyl-acetamide] | > 2000 nM | – |
| < 100 nM | < 30 nM | – | CN(CCO)c1c(O[C@H]2CC[C@@H](N)CC2)ccc2c1CC(C)(C)c1c(N)ncnc1-2 [Example 24, 2-[[4-amino-8-(cis-4-aminocyclohexoxy)-5,5-dimethyl-6H-benzo[h]quinazolin-7-yl]-methyl-amino]ethanol] | < 100 nM | – |
| > 2000 nM | < 30 nM | – | CC1(C)Cc2c(ccc(O[C@H]3CC[C@H](N)CC3)c2NC[C@@H]2CNC(=O)O2)-c2ncnc(N)c21 [Example 129, (5R)-5-[[[4-amino-8-(trans-4-aminocyclohexoxy)-5,5-dimethyl-6H-benzo[h]quinazolin-7-yl]amino]methyl]oxazolidin-2-one] | > 2000 nM | – |
| > 2000 nM | 101 to 1000 nM | – | CC(=O)Nc1c(O[C@H]2CC[C@H](N)CC2)ccc2c1CC(C)(C)c1c(N)ncnc1-2 [Example 6, N-[4-amino-8-(trans-4-aminocyclohexoxy)-5,5-dimethyl-6H-benzo[h]quinazolin-7-yl]acetamide] | 100 to 2000 nM | – |
| 100 to 2000 nM | < 30 nM | – | CCCN(CCO)c1c(O[C@H]2CC[C@@H](N)CC2)ccc2c1CC(C)(C)c1c(N)ncnc1-2 [Example 23, 2-[[4-amino-8-(cis-4-aminocyclohexoxy)-5,5-dimethyl-6H-benzo[h]quinazolin-7-yl]-propyl-amino]ethanol] | 100 to 2000 nM | – |
| – | < 30 nM | < 100 nM | CC1(C)Cc2c(ccc(O[C@H]3CC[C@H](N)CC3)c2N2CCC(C#N)C2)-c2ncnc(N)c21 (single isomer, unassigned) [Example 50, 1-[4-amino-8-(trans-4-aminocyclohexoxy)-5,5-dimethyl-6H-benzo[h]quinazolin-7-yl]pyrrolidine-3-carbonitrile] | – | < 100 nM |
